Laboratory results as given in paper PMC4445981, “The glutamate transport inhibitor DL-Threo-β-Benzyloxyaspartic acid (DL-TBOA) differentially affects SN38- and oxaliplatin-induced death of drug-resistant colorectal cancer cells” (BMC Cancer, 2015).

Columns and labels:
Format in all cases: cell-based, human
[1] = test system: parental and drug-resistant HCT116 and LoVo cell lines; test: MTT viability assay, HCT116 and LoVo cell lines
Description: Fig. 2 DL-TBOA augments SN38-induced death in SN38-resistant cells, but protects oxaliplatin-resistant cells from oxaliplatin-induced death. Parental and drug-resistant HCT116 and LoVo cell lines seeded in 96-well dishes were exposed to SN38 (0.1 or 0.8 μM) or oxaliplatin (0.8 or 20 μM), alone or in combination with 70 or 350 μM DL-TBOA as indicated, for 48 h. Viability was assessed by MTT assay. a-b Parental HCT116 cells, (c) SN38 resistant HCT116 cells, (d) Oxaliplatin-resistant HCT116 cells, (e-f) Parental LoVo cells, (g) SN38 resistant LoVo cells, (h) Oxaliplatin-resistant LoVo cells. Data are means with S.E.M. error bars of 3 independent experiments. *) p < 0.05, **) p < 0.01, ***) p < 0.001 compared to the control group without drug or TBOA treatment; #) p < 0.05 compared to controls without TBOA treatment. One-way ANOVA followed by Dunnett post-test
Cells were seeded at appropriate density (LoVo 10,000, and HCT116 5000 cells /100 μl) in growth medium in 96-well plates. Next day, cells were treated with inhibitors and/or chemotherapy in a total volume of 200 μl in growth medium and incubated for 48 h at 37 °C, 5 % CO2. The medium was replaced with 100 μl of 0.5 mg/ml 3-(4,5-dimethylthiazol-2-yl)-2,5-diphenyltetrazolium bromide (MTT) in growth medium. The reaction was stopped 1.5-2.5 h later by addition of 100 μl 20 % SDS in 0.02 M HCl, and incubation overnight to allow complete lysis of cells and formazan crystals. Absorbance was measured in an ELISA plate reader (Thermo Scientific MultiScan FC) at 550 nm. Data were background subtracted and % viability relative to controls calculated.

[2] = test system: cellular reduced glutathione (GSH); test: Cellular GSH level; conditions: 24 h
Description: Fig. 4 Effect of glutamate transporter inhibition on cellular GSH levels. a Basal intracellular GSH levels were measured as described in Materials and Methods, and normalized to total protein in the samples. b-c Normalized basal GSH levels under control conditions, in HCT116 and LoVo parental and resistant cells after 24 h of treatment with 0.8 μM SN38 or 20 μM oxaliplatin, in absence or presence of DL-TBOA (350 μM) as shown. * p < 0.05 vs untreated control group (n = 5). One-way ANOVA followed by Dunnett post-test
Cells were seeded in 24-well plates (10^4 cells per well), treated the next day with chemotherapy and/or DL-TBOA and incubated for 24 h. Medium was removed and cells were washed twice with ice-cold PBS, which was removed and 500 μl ice-cold 1 % Sulfosalicylic acid was added per well. Cells were incubated on ice for at least 10 min. After centrifugation (1 min, 15,000 g), 10 μl lysate was used to determine total GSx content. To measure GSSG content, 130 μl sample was mixed with 55 μl 0.2 M Tris (pH 9) and 5 μl 2-Vinylpyridine. Tubes were vortexed carefully and incubated for at least 1 h at room temperature. 10 μl of this mix was mixed first with 90 μl of water in a 96-well plate and then with a reaction mix (0.1 M sodium phosphate buffer pH 7.5 containing 1 mM EDTA, 10 mM NADPH, 10 mM DTNB and 0.05 μl Glutathione reductase, 2U/μl). Measurements were taken every 30 s for 10 min in an ELISA plate reader (Thermo Scientific MultiScan FC) at 405 nm absorbance. GSH values were obtained by subtraction of GSSG values from GSx values.

[3] = test system: SLC1A1 localization in HCT116 cells; test: Immunofluorescence analysis of SLC1A1 subcellular localization; conditions: 48 h
Description: Immunofluorescence analysis was carried out essentially as in [47]. Cells grown on glass coverslips were fixed in 2 % paraformaldehyde, washed in TBST, permeabilized for 5 min (0.5 % Triton X-100 in TBST), blocked for 30 min in 5 % BSA in TBST, incubated with SLC1A1 primary antibody in TBST + 1 % BSA overnight at 4 °C, washed in TBST, and with Rhodamine-phalloidin and AlexaFluor488 conjugated secondary antibody (1:600 in TBS + 1 % BSA) for 1 h, followed by washing in TBST, and mounting in N-propyl-galleate mounting medium (2 % w/v in PBS/glycerol). DAPI was added for 3 min following incubation with the secondary antibody. Cells were visualized using the 60X/1.35 NA objective of an Olympus Bx63 epifluorescence microscope. […] Overlays were carried out using Adobe Photoshop software. No other image adjustment was performed.

[4] = parental HCT116 cells, 0.8 μM SN38 or 20 μM oxaliplatin

Row | Structure (SMILES) | effect on SN38-induced loss of viability ([1]; SN38-resistant HCT116 and LoVo cells, concomitant DL-TBOA 70 or 350 μM, 48 h) | effect on oxaliplatin-induced loss of viability ([1]; both parental cell lines, DL-TBOA 70 or 350 μM concomitantly with oxaliplatin, 48 h) | effect on viability of untreated cells ([1]; no chemotherapeutic, DL-TBOA 70 or 350 μM, 48 h, all cell lines (Fig. 2a-h)) | effect on oxaliplatin-induced loss of viability ([1]; oxaliplatin-resistant HCT116 and LoVo cells, DL-TBOA 70 or 350 μM, 48 h) | effect on SN38-induced loss of viability ([1]; parental cell lines, DL-TBOA 70 or 350 μM concomitantly with SN38, 48 h) | effect on cellular GSH levels ([2]; 350 μM DL-TBOA, HCT116 and LoVo parental and resistant cells) | effect on SLC1A1 localization ([3]; SN38-resistant HCT116 cells, 350 μM DL-TBOA added to chemotherapeutic treatment) | effect on intracellular SLC1A1 localization ([3]; oxaliplatin-resistant HCT116 cells, control and oxaliplatin-treated, 350 μM DL-TBOA) | effect on SLC1A1 localization ([3]; parental HCT116 cells, 350 μM DL-TBOA alone or with chemotherapeutic agents) | viable cells remaining ([1]; parental HCT116 and LoVo, 48 h, 20 μM oxaliplatin (highest dose tested)) | effect on cellular GSH levels [2, 4] | SLC1A1 subcellular localization [3, 4]
1 | N[C@H](C(=O)O)[C@H](OCc1ccccc1)C(=O)O (racemic) [TBOA, DL-Threo-β-Benzyloxyaspartic acid] | concentration-dependently enhanced SN38-induced loss of viability | counteracted the effect of oxaliplatin on viability | small decrease in viability | reversed oxaliplatin-induced loss of viability | slightly exacerbated the SN38-induced loss of viability | no detectable effect | increased the fraction of SLC1A1 fluorescence localized to the perinuclear/nuclear compartment | partially reversed | no detectable effect on SLC1A1 localization |  |  | 
2 | O=C(O)C(=O)O.[NH-][C@@H]1CCCC[C@H]1[NH-].[Pt+2] [oxaliplatin] |  |  |  |  |  |  |  |  |  | about 20% | slightly increased GSH levels | marked shift in SLC1A1 localization towards the perinuclear/nuclear region
